In one experiment the test system is LK2 cells. The experiment can be described thus: Cell growth inhibitory activity, LK2 cells (Test Example 3). The experiment is classed as cell-based. To be noted: Homo sapiens, LK-2, 72 h, cultured for 3 days, CellTiter-Glo. The method, then: (§1) [Test Example 3] Evaluation of Cell Growth Inhibitory Activity
(§2) As a culture medium for each cell, a 10% FBS supplemented RPMI 1640 medium (for LK2 cells and TE-8 cells derived from human esophageal cancer) was used. LK2 cells were purchased from Human Science Research Resources Bank, and TE-8 cells were purchased from Riken Cell Bank. The compound of each of Examples 1 to 108b was prepared by dilution with Freedom EVO 150 (Tecan Trading AG) (4-fold diluted, 10 stages, 10 mM to 38 nM). The resultant was added to respective wells of a 384-well plate in an amount of 40 nL/well using Echo 555 (Labcyte Inc.). The LK2 or TE-8 cells were seeded in the plate at 400 cells/40 μL/well (day 0), and were cultured for 3 days. On the day of addition of the compound (day 0) and 3 days after the addition of the compound (day 3), an ATP measurement reagent of CellTiter-Glo (registered trademark) 2.0 Assay (Promega Corporation, #G9242) was added to each well in an amount of 10 μL/well, and the amount of luminescence of each well was measured using EnVision. Based on the amount of luminescence (C0) on the day of the addition of the compound, and the amounts of luminescence of a compound non-addition group (C3) and a compound addition group (T3) obtained after the 3-day culture of the compound, a cell survival rate was calculated in accordance with the following expression: Cell survival rate (%)=(T3−C0)/(C3−C0)×100
(§3) A concentration (GI50 value) of each compound at which the growth of the TE-8 or LK-2 cells was inhibited by 50% was calculated by semilogarithmically plotting the cell survival rate at each concentration and the compound concentration.
(Cellular ATP, detected with luciferase, serves as a proxy for viable cell number.)

The next experiment has as its target CREBBP (Homo sapiens, UniProt Q92793). Briefly: Histone acetyltransferase inhibitory activity against CREBBP (Test Example 1). Type of experiment: biochemical. The settings on record: 125 ng/mL CREBBP, 2 μM Acetyl-CoA, 100 nM Histone H4(1-25)-GSGSK (Biotin), 28° C. for 1 hour. The method, then: (§4) [Test Example 1] Evaluation of Histone
(§5) Acetyltransferase Inhibitory Activity against EP300 and CREBBP
(§6) 10 μL each of reaction solutions each containing a different concentration of the compound of each of Examples 1 to 108b (50 mM Tris-HCl (pH8.0), 0.1 mM EDTA, 1 mM dithiothreitol, 0.01% Tween-20, 0.01% Bovine serum albumin, 330 nM trichostatin A, 2 μM Acetyl-CoA (Sigma-Aldrich, #A2056), 100 nM Histone H4(1-25)-GSGSK (Biotin) (Anaspec, #65242-1), 1% dimethyl sulfoxide, 10 to 0.0006 μM of each compound, 50 ng/mL EP300 or 125 ng/mL CREBBP) was added to respective wells of a 384-well plate, and cultured at 28° C. for 1 hour. Thereafter, 5 μL of 30 μM Lys-CoA (Daiichi Sankyo Co., Ltd.) dissolved in LANCE detection buffer (Perkin Elmer Co., Ltd., #CR97-100) was added to each well. Furthermore, 5 μL of LANCE detection buffer containing 2 nM Eu-anti pan-Ac (Perkin Elmer Co., Ltd., #TRF0412) and 50 nM Sta-Ulight (Perkin Elmer Co., Ltd., #TRF0102) was added to each well, and the resultant was cultured at room temperature overnight. EnVision (Perkin Elmer Co., Ltd., Model 2104-0020) was used to measure ULight signals. […] EP300 and CREBBP were produced and purified by Daiichi Sankyo RD Novare Co., Ltd.

The target in another experiment is EP300 (Homo sapiens, UniProt Q09472). The experiment can be described thus: Histone acetyltransferase inhibitory activity against EP300 (Test Example 1). The experiment is classed as biochemical. To be noted: 50 ng/mL EP300, 2 μM Acetyl-CoA, 100 nM Histone H4(1-25)-GSGSK (Biotin), 28° C. for 1 hour. The procedure: as §4, §5, §6
Chain of EP300 (Q09472 whole entry): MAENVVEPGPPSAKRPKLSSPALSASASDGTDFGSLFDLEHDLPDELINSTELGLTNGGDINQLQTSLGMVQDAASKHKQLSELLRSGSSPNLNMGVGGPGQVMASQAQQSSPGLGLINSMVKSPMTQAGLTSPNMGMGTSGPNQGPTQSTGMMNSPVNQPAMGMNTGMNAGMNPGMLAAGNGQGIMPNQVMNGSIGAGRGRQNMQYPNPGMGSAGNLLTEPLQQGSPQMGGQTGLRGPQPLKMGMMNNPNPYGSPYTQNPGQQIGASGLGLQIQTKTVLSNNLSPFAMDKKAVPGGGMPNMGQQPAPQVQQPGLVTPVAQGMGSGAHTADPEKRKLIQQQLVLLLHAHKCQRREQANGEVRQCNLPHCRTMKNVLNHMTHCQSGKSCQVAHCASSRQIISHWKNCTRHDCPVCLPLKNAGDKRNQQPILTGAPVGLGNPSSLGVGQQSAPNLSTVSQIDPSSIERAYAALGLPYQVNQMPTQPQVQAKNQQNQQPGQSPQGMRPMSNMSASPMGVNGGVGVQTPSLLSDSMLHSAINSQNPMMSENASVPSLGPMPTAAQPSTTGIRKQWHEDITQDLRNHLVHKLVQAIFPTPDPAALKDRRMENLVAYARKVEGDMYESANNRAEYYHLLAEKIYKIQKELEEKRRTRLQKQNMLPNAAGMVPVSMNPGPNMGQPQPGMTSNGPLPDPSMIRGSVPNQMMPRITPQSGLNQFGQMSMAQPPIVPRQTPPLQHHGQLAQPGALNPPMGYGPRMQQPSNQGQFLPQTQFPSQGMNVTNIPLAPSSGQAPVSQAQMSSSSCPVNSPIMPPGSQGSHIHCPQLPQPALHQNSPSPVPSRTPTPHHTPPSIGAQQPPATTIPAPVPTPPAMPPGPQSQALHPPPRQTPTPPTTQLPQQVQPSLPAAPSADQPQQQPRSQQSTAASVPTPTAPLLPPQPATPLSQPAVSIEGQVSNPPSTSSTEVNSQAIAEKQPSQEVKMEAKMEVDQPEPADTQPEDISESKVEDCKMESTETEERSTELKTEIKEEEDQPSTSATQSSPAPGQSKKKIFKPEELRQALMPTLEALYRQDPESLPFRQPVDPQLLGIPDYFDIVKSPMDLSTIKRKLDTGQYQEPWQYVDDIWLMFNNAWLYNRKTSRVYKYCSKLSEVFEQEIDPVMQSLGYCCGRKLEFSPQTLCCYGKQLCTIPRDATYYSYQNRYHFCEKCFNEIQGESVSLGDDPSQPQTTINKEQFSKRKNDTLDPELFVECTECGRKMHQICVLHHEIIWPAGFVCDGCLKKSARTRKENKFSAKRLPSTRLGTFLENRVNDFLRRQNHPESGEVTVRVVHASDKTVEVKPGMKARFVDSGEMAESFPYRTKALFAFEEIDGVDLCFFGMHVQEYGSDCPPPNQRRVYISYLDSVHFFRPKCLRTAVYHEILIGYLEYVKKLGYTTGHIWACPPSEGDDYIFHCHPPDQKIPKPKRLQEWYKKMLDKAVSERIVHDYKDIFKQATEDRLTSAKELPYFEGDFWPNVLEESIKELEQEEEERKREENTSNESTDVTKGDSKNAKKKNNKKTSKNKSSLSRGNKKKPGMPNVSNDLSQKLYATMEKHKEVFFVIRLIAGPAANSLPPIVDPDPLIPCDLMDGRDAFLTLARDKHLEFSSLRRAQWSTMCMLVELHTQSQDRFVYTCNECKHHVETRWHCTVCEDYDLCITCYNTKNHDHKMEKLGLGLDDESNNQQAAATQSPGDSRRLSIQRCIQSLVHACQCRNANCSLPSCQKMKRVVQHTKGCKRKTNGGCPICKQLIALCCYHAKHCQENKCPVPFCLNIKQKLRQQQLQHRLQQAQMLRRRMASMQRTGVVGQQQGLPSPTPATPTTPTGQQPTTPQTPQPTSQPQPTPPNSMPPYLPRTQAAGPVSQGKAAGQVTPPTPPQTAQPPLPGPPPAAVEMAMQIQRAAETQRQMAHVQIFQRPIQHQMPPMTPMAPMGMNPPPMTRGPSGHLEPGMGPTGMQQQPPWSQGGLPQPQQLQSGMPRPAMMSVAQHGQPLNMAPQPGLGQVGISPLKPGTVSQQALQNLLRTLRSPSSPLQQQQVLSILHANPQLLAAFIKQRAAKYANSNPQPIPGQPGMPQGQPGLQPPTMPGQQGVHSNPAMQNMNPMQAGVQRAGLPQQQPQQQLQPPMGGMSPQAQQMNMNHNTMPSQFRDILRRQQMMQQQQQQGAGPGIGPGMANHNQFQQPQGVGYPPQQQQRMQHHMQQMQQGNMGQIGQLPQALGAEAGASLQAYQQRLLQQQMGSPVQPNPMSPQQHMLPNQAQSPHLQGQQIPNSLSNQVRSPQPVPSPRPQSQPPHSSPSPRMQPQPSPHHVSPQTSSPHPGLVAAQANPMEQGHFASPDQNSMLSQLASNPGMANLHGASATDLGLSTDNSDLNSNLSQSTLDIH
Another experiment relates to H3K27Ac. The experiment can be described thus: Intracellular H3K27Ac inhibitory activity in LK2 cells (Test Example 2). To be noted: Homo sapiens, LK-2, cultured with compound for 3 hours, read-out: Test Example 2 H3K27Ac Inhibition (LK2) IC50. Type of experiment: cell-based. The procedure:
[Test Example 2] Evaluation of Intracellular H3K27Ac Inhibitory Activity
LK2 cells derived from human squamous cell lung cancer were seeded in a 96 well plate at 40000 cells/100 μL/well, and were cultured overnight at 37° C. in 5% CO2. The LK2 cells were purchased from Human Science Research Resources Bank. […] The supernatant was discarded, 4% paraformaldehyde was added thereto at 100 μL/well, and the resultant was allowed to stand still at room temperature for 15 minutes. The 4% paraformaldehyde was discarded, and the resultant was washed with PBS-T. A quenching buffer (PBS-T containing 1% H2O2) was added thereto at of 100 μL/well, and the resultant was allowed to stand still at room temperature for 10 minutes. The resultant was washed with PBS-T, a blocking buffer (StartingBlocK T20 (TBS) Blocking Buffer (Thermo […], #37543)) was added thereto at 200 μL/well, and the resultant was allowed to stand still at room temperature for 1 hour. The supernatant was discarded, Acetyl-Histone H3 (Lys27) (D5E4) XP (registered trademark) Rabbit mAb (cell Signaling, #8173) diluted with a blocking buffer was added thereto at 50 μL/well, and the resultant was allowed to stand still at 4° C. overnight. The resultant was washed with PBS-T, Anti-Rabbit IgG-HRP (Cell Signaling, #7074S) diluted with a blocking buffer was added thereto at 50 μL/well, and the resultant was cultured at room temperature for 1 hour. The resultant was washed with PBS-T, SuperSignal (registered trademark) ELISA Pico Chemiluminescent Substrate (Thermo […], #37069) was added thereto at 50 μL/well, and a signal was measured using EnVision.

Another experiment relates to TE-8 cells. The experiment can be described thus: Cell growth inhibitory activity, TE-8 cells (Test Example 3). Type of experiment: cell-based. The settings on record: Homo sapiens, 72 h, cultured for 3 days, CellTiter-Glo. The method, then: as §1, §2, §3

Molecules are shown by their SMILES.

What is called GI50 is the concentration at which growth is held to half of that of the control. A high value points to lower sensitivity of the cells. What is called IC50 is the concentration needed to halve the response being measured.

Chain of CREBBP (Q92793 whole entry): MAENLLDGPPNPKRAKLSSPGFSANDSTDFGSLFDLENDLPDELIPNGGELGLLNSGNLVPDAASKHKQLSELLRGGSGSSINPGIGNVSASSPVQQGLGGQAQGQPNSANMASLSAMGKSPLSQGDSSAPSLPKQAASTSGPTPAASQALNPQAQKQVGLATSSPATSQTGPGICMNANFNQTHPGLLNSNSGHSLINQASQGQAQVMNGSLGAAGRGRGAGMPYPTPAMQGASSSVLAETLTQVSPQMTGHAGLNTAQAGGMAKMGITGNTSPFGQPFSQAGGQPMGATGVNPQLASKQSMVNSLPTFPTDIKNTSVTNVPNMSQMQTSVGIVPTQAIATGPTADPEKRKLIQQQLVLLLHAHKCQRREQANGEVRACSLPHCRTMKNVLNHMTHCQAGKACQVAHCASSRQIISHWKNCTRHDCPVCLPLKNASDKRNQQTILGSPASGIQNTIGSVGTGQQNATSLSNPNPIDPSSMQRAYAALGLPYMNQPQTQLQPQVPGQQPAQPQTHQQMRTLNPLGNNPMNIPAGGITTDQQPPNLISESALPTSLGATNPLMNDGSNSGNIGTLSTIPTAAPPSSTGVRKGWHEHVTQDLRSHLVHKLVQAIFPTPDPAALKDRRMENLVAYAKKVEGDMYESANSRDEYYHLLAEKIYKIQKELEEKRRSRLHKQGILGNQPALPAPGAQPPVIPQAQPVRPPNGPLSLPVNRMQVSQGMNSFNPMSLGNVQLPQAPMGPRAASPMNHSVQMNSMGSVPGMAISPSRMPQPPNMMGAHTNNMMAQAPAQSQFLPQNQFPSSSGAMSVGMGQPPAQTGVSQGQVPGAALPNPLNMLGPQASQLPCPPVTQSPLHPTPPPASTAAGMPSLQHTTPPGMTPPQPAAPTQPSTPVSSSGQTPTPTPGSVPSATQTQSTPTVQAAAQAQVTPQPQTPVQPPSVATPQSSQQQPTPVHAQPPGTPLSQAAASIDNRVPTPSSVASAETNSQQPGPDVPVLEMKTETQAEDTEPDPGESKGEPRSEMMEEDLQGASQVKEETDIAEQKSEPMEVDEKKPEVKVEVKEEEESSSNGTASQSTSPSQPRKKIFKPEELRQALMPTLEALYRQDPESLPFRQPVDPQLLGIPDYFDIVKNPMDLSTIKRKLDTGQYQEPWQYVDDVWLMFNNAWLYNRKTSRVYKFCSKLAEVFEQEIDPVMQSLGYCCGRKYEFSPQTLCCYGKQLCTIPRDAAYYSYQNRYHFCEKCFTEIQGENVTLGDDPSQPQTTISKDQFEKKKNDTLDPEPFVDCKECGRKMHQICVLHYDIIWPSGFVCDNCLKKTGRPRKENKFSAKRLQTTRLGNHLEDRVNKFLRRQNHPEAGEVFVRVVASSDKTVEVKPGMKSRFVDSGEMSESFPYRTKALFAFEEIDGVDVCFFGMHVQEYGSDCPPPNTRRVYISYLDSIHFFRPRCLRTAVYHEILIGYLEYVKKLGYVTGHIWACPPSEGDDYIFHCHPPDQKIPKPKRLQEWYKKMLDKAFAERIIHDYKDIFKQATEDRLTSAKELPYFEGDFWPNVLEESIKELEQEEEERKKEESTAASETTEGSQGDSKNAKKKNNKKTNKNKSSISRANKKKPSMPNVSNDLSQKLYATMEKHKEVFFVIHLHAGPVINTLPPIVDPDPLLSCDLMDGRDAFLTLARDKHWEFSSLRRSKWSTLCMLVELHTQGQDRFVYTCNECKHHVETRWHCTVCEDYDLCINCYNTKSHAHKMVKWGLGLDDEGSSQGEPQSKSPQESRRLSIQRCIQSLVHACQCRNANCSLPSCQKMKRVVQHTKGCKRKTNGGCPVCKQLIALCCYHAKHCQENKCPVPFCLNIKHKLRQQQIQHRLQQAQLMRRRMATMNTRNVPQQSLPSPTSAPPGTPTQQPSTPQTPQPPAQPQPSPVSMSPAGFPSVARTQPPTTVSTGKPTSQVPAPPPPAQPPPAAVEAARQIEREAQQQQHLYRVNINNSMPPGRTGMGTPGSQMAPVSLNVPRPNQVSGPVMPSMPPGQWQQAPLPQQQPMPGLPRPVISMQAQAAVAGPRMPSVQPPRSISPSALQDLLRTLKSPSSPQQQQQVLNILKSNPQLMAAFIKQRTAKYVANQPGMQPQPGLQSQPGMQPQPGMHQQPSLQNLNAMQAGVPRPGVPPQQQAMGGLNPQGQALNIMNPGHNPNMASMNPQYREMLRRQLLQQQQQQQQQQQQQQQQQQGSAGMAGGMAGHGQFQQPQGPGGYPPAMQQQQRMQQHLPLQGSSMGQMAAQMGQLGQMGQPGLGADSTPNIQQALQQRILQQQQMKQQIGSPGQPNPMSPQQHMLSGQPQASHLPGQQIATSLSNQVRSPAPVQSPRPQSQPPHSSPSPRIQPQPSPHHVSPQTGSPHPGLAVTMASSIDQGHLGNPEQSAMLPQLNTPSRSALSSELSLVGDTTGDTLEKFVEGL

`COc1ccc(C2(C(=O)N3C[C@H](F)C[C@@H]3C(=O)Nc3cccc4[nH]ncc34)CCCCO2)cc1` (single isomer, unassigned) [Example 44]: the GI50 with LK2 cells is 0.589 µM; with TE-8 cells, 1.74 µM. Also, the values for the IC50 against CREBBP, against EP300 and in the experiment on H3K27Ac were 0.048 µM, 0.048 µM and 0.246 µM, respectively.
For `COc1ccc(C2(C(=O)N3CCOCC(Cc4cccc5[nH]ncc45)C3)CCCC2)cc1` (single isomer, unassigned) [Example 108b, [6-(1H-Indazol-4-ylmethyl)-1,4-oxazepan-4-yl][1-(4-methoxyphenyl)cyclopentyl]methanone], the GI50 with LK2 cells stood at 1.09 µM; with TE-8 cells it was 1.16 µM. Further, the IC50 was 0.083 µM against CREBBP, 0.05 µM against EP300 and 0.125 µM with H3K27Ac.
With `COc1ccc(C2(C(=O)N3CCC[C@@H]3C(=O)Nc3cccc4[nH]ncc34)CCCC2)cc1` [Example 1, N-1H-Indazol-4-yl-1-{[1-(4-methoxyphenyl)cyclopentyl]carbonyl}-D-prolinamide], the GI50 with LK2 cells was 2.74 µM; with TE-8 cells it was 3.41 µM. The values for the IC50 at CREBBP and at EP300 were 0.218 µM and 0.176 µM, respectively.
For `COc1ccc(C2(C(=O)N3CCC[C@@H]3C(=O)Nc3ccc4[nH]c(=O)[nH]c4c3)CCCC2)cc1` [Example 19, l-{[1-(4-Methoxyphenyl)cyclopentyl]carbonyl}-N-(2-oxo-2,3-dihydro-1H-benzimidazol-5-yl)-D-prolinamide], the IC50 is 0.169 µM against CREBBP, 0.171 µM against EP300 and 1.05 µM with H3K27Ac.
Taken in the same sequence, the figures for `COc1ccc(C2(C(=O)N3CCC[C@@H]3C(=O)Nc3ccc(O)c(Cl)c3)CCCC2)cc1` [Example 21, N-(3-Chloro-4-hydroxy-phenyl)-1-{[1-(4-methoxyphenyl)cyclopentyl]carbonyl}-D-prolinamide] were 0.036 µM, 0.13 µM and 0.458 µM.
Taken in the same sequence, the figures for `COc1ccc(C2(C(=O)N3CCC[C@@H]3C(=O)Nc3ccn(C)n3)CCCC2)cc1` [Example 22, 1-{[1-(4-Methoxyphenyl)cyclopentyl]carbonyl}-N-(1-methyl-1H-pyrazol-3-yl)-D-prolinamide] were 0.676 µM, 0.962 µM and 2.25 µM.
Taken in the same sequence, the figures for `COc1ccc(C2(C(=O)N3CCC[C@@H]3C(=O)Nc3ccc(OCCN4CCOCC4)cc3C#N)CCCC2)cc1` [Example 23, N-{2-Cyano-4-[2-(morpholin-4-yl)ethoxy]phenyl}-1-{[1-(4-methoxyphenyl)cyclopentyl]carbonyl}-D-prolinamide] were 0.171 µM, 0.101 µM and 0.121 µM.
With `COc1ccc(C2(C(=O)N3CCC[C@@H]3C(=O)Nc3ccc4[nH]ncc4c3)CCCC2)cc1` [Example 24, N-1H-Indazol-5-yl-1-{[1-(4-methoxyphenyl)cyclopentyl]carbonyl}-D-prolinamide], the GI50 in the experiment with LK2 cells is 1.62 µM; in the experiment on TE-8 cells, 4.06 µM. Besides, the IC50 was determined as 0.128 µM against CREBBP, 0.254 µM against EP300 and 0.916 µM with H3K27Ac.
Take `N#Cc1ccccc1NC(=O)[C@H]1C[C@@H](F)CN1C(=O)C1(c2ccc(C(=O)O)cc2)CCCC1` [Example 29, 4-[1-({(2R,4R)-2-[(2-Cyanophenyl)carbamoyl]-4-fluoropyrrolidin-1-yl}carbonyl)cyclopentyl] benzoic acid]: the IC50 on CREBBP came out at 0.125 µM; at EP300, 0.02 µM; in the experiment with H3K27Ac it was 0.474 µM.
The matching figures for `CNc1cccc(NC(=O)[C@H]2CCCN2C(=O)C2(c3ccc(OC)cc3)CCCC2)n1` [Example 30, 1-{[1-(4-Methoxyphenyl)cyclopentyl]carbonyl}-N-[6-(methylamino)pyridin-2-yl)-D-prolinamide]: 0.233 µM, 0.182 µM and 0.577 µM.
Taken in the same sequence, the figures for `COc1ccc(C2(C(=O)N3C[C@](C)(O)C[C@@H]3C(=O)Nc3cccc4[nH]ncc34)CCCC2)cc1` [Example 31, (4R)-4-Hydroxy-N-1H-indazol-4-yl-1-{[1-(4-methoxyphenyl)cyclopentyl]carbonyl}-4-methyl-D-prolinamide] were 0.652 µM, 0.364 µM and 1.55 µM.
For `COc1ccc(C2(C(=O)N3CSC[C@@H]3C(=O)Nc3ccccc3C#N)CCCCC2)cc1` [Example 34, (4S)—N-(2-Cyanophenyl)-3-{[1-(4-methoxyphenyl)cyclohexyl]carbonyl}-1,3-thiazolidine-4-carboxamide], the half-maximal inhibitory concentration (IC50) is 0.039 µM at CREBBP, 0.04 µM at EP300 and 0.307 µM in the experiment with H3K27Ac.
The matching figures for `O=C(NS(=O)(=O)C1CC1)c1ccc(C2(C(=O)N3C[C@H](F)C[C@@H]3C(=O)Nc3cccc4[nH]ncc34)CCCCC2)cc1` [Example 36, (4R)-1-[(1-{4-[(Cyclopropylsulfonyl)carbamoyl]phenyl}cyclohexyl)carbonyl]-4-fluoro-N-1H-indazol-4-yl-D-prolinamide]: 0.023 µM, 0.017 µM and greater than 10 µM.
Taken in the same sequence, the figures for `COc1ccc(C2(C(=O)N3CS(=O)(=O)C[C@@H]3C(=O)Nc3ccc4[nH]ncc4n3)CCCCC2)cc1` [Example 40, (4S)-3-{[1-(4-Methoxyphenyl)cyclohexyl]carbonyl}-N-(1H-pyrazolo[4,3-b]pyridin-5-yl)-1,3-thiazolidin-4-carboxamide 1,1-dioxide] were 0.029 µM, 0.022 µM and 0.027 µM.
As for `COc1ccc(C2(C(=O)N3CCC[C@@H]3C(=O)Nc3cccc4[nH]ncc34)CCC2)cc1` [Example 53, N-1H-Indazol-4-yl-1-{[1-(4-methoxyphenyl)cyclobutyl]carbonyl}-D-prolinamide], the GI50 in the experiment with LK2 cells was 2.64 µM; in the experiment on TE-8 cells, 6.06 µM. Also, the IC50 with H3K27Ac worked out at 2.08 µM.
For the compound `COc1ccc(C2(C(=O)N3C[C@H](F)C[C@@H]3C(=O)Nc3ccc4c(n3)NC(=O)CO4)CCCCC2)cc1` [Example 67, (4R)-4-Fluoro-1-{[1-(4-methoxyphenyl)cyclohexyl]carbonyl}-N-(3-oxo-3,4-dihydro-2H-pyrido[3,2-b][1,4]oxazin-6-yl)-D-prolinamide], the figures for the IC50 against CREBBP, against EP300 and in the experiment with H3K27Ac were 0.678 µM, 0.397 µM and 2.41 µM, respectively.

Values taken from patent US11274100B2, “EP300/CREBBP inhibitor” (Daiichi Sankyo Company, Limited, priority 2017, dated 2022).
